US12473298B2, “Amide compounds, preparation method therefor, and use thereof in the medical field” (Shanghai Synergy Pharmaceutical Sciences Co., Ltd., priority 2019, dated 2025)
Read-outs that look alike come from different tables or passages of the source.

Tests used:
[1] = system: human diffuse large cell lymphoma B lymphocytes (Pfeiffer cell); assay: Pfeiffer cell proliferation, Calcein AM staining; format: cell-based; details: Homo sapiens, Pfeiffer; data of 14th day; read-out: Pfeiffer Proliferation IC50 Nanomoles per Liter
Source text: The diffuse large cell lymphoma B lymphocytes (Pfeiffer cells) were collected and counted when growing well.

[2] = Pharmacokinetic experiment in rats; format: in vivo, SD rats
Protocol: A certain amount of compound was weighted and dissolved in 0.1% Tween under vortex and ultrasound, and 0.5% carboxymethyl cellulose sodium (CMC-NA) solution was added to form a uniform solution.

[3] = system: human diffuse large B-cell lymphoma cells (Karpas 422 cell); assay: Karpas 422 cell proliferation, Calcein AM staining; format: cell-based; details: Homo sapiens, KARPAS-422; data of 14th day; read-out: Karpas422 Proliferation IC50 Nanomoles per Liter
Mutant type EZH2(A677G) = Mutant type EZH2(A677G) (Homo sapiens (Human), UniProt Q15910, A677G); assay: AlphaLISA, mutant type PRC2 complex EZH2(A677G); format: biochemical; details: read-out: Mutant type EZH2(A677G) IC59 Nanomoles per Liter
Mutant type EZH2(A677G), sequence (Q15910 whole entry A677G): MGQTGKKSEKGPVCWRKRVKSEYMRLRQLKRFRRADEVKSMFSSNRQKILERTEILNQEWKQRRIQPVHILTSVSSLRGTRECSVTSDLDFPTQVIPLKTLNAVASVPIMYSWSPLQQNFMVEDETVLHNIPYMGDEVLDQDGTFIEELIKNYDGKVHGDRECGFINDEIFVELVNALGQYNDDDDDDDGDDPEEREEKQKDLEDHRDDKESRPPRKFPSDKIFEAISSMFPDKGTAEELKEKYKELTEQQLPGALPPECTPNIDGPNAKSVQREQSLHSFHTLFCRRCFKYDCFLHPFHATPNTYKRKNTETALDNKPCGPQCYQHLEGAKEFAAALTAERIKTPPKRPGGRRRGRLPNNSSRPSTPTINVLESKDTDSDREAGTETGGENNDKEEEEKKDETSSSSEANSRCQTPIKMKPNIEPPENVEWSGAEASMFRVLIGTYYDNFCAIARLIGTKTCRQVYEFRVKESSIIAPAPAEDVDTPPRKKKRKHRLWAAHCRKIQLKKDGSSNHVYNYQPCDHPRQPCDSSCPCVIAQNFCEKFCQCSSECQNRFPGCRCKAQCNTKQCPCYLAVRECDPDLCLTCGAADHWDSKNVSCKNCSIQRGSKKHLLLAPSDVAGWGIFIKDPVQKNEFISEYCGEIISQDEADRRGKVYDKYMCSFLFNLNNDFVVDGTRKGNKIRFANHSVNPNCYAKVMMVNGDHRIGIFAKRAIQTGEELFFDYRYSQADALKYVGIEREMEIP
Mutant type EZH2(A677G), sequence (O75530 whole entry partner): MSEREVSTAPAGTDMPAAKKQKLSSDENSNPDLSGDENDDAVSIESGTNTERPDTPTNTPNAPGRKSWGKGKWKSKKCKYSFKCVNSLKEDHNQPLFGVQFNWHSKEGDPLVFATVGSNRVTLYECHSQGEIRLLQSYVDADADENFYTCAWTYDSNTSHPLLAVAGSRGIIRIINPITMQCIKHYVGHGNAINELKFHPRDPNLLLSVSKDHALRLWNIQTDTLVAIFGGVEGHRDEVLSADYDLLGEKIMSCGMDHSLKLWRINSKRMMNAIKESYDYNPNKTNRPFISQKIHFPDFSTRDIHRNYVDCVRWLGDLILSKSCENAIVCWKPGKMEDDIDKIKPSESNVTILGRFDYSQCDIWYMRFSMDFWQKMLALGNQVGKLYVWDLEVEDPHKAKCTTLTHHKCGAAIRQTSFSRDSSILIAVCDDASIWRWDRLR
Mutant type EZH2(A677G), sequence (Q15022 whole entry partner): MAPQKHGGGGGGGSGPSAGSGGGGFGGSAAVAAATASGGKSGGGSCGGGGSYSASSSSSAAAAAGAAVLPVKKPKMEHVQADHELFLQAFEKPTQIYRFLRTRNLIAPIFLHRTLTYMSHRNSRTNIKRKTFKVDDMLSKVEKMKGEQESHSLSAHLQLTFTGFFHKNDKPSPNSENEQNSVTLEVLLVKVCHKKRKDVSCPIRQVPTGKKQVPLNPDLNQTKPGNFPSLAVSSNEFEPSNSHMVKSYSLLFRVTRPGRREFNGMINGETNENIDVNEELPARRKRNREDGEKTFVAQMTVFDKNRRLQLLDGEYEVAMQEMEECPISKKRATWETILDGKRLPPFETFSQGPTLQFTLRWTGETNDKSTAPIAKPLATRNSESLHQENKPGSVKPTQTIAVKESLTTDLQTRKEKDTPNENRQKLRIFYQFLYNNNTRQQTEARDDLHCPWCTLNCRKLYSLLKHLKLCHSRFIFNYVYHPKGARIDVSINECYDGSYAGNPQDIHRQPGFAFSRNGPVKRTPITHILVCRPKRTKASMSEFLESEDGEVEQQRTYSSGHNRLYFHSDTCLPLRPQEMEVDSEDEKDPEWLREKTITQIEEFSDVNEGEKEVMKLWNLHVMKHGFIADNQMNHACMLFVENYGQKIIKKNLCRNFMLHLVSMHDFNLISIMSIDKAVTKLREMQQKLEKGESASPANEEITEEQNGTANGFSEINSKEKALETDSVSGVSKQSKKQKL
Mutant type EZH2(A677G), sequence (Q09028 whole entry partner): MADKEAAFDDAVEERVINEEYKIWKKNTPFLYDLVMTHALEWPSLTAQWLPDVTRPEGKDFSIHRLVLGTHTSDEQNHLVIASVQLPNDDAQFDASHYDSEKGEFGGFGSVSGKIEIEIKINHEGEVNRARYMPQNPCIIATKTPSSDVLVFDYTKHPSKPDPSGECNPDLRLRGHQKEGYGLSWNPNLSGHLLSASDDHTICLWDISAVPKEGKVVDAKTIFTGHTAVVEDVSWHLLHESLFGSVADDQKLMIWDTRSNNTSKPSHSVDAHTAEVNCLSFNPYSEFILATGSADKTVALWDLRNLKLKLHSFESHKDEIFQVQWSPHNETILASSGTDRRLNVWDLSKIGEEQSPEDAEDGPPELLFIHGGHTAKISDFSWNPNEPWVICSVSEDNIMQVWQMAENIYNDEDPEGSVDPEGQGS
Mutant type EZH2(A677G), sequence (Q6ZN18 whole entry partner): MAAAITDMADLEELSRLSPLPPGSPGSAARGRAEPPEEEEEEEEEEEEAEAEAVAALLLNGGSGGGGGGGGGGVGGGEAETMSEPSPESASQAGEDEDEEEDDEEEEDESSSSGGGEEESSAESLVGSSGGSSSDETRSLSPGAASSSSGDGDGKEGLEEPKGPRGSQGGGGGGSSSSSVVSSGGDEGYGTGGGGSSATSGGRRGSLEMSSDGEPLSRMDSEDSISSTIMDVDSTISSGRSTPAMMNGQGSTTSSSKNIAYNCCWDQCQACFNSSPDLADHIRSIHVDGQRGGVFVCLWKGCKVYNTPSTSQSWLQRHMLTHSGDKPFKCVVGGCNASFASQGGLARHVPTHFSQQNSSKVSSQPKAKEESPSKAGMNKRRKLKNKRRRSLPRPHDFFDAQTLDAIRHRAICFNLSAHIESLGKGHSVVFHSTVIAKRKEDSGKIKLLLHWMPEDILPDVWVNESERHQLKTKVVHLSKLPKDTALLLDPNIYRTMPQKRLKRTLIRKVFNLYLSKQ

Mutant type EZH2(Y641F) = Mutant type EZH2(Y641F) (Homo sapiens (Human), UniProt Q15910, Y641F); assay: AlphaLISA, mutant type PRC2 complex EZH2(Y641F); format: biochemical; details: read-out: Mutant type EZH2(Y641F) IC50 Nanomoles per Liter
Mutant type EZH2(Y641F), sequence (Q15910 whole entry Y641F): as the sequence (Q15910 whole entry A677G) above, with Y641F, G677A counted along it
Mutant type EZH2(Y641F), sequence (O75530 whole entry partner): as the sequence (O75530 whole entry partner) above
Mutant type EZH2(Y641F), sequence (Q15022 whole entry partner): as the sequence (Q15022 whole entry partner) above
Mutant type EZH2(Y641F), sequence (Q09028 whole entry partner): as the sequence (Q09028 whole entry partner) above
Mutant type EZH2(Y641F), sequence (Q6ZN18 whole entry partner): as the sequence (Q6ZN18 whole entry partner) above

Mutant type EZH2(Y641N) = Mutant type EZH2(Y641N) (Homo sapiens (Human), UniProt Q15910, Y641N); assay: AlphaLISA, mutant type PRC2 complex EZH2(Y641N); format: biochemical; details: read-out: Mutant type EZH2(Y641N) IC50 Nanomoles per Liter
Mutant type EZH2(Y641N), sequence (Q15910 whole entry Y641N): as the sequence (Q15910 whole entry A677G) above, with Y641N, G677A counted along it
Mutant type EZH2(Y641N), sequence (O75530 whole entry partner): as the sequence (O75530 whole entry partner) above
Mutant type EZH2(Y641N), sequence (Q15022 whole entry partner): as the sequence (Q15022 whole entry partner) above
Mutant type EZH2(Y641N), sequence (Q09028 whole entry partner): as the sequence (Q09028 whole entry partner) above
Mutant type EZH2(Y641N), sequence (Q6ZN18 whole entry partner): as the sequence (Q6ZN18 whole entry partner) above

wild-type EZH2 = wild-type EZH2 (Homo sapiens (Human), UniProt Q15910); assay: radiometric assay, activity to wild-type EZH2 of PRC2
wild-type EZH2, sequence (Q15910 whole entry): as the sequence (Q15910 whole entry A677G) above, with G677A counted along it
wild-type EZH2, sequence (O75530 whole entry partner): as the sequence (O75530 whole entry partner) above
wild-type EZH2, sequence (Q15022 whole entry partner): as the sequence (Q15022 whole entry partner) above
Protocol: 25 μL of reaction solution was transferred to a scintillation plate, which was incubated at room temperature for 1 hour (h) and washed with deionized water and 0.1% Tween 20 for three times. A PerkinElmer liquid scintillation/luminescence counter was used to read the value, and GraphPad Prism 5 was used to calculate the median inhibitory concentration (IC50) of the compounds.

[4] = male, SD, rat, plasma, rats, Intravenous-Dose 4 mg/kg, read-out: Area Curve (AUC, ng/mL · h)
[5] = male, SD, rat, plasma; rats, Intravenous-Dose 4 mg/kg; read-out: Half life T1/2, h) (converted)
[6] = male, SD, rat, plasma, rats, Oral-Dose 20 mg/kg, read-out: Area Curve (AUC, ng/mL · h)
[7] = male, SD, rat, plasma, rats, Oral-Dose 20 mg/kg, read-out: Blood Drug level (Cmax, ng/mL)
[8] = male, SD, rat, plasma, rats, oral 20 mg/kg vs intravenous 4 mg/kg, read-out: Bioavailability (P %)
[9] = read-out: Wild-type EZH2 IC50 Nanomoles per Liter
[10] = male, SD, rat, in vivo, iv, 4 mg/kg
[11] = male, SD, rat, in vivo, po, 20 mg/kg

Structure (SMILES) | IC50 [1] [nM] | AUC [2, 4] [ng·h/mL] | half-life [2, 5] [h] | AUC [2, 6] [ng·h/mL] | Cmax [2, 7] [ng/mL] | bioavailability [2, 8] [%] | IC50 [3] [nM] | IC50 (Mutant type EZH2(A677G)) [nM] | IC50 (Mutant type EZH2(Y641F)) [nM] | IC50 (Mutant type EZH2(Y641N)) [nM] | IC50 (wild-type EZH2; [9]) [nM] | IC50 (wild-type EZH2) [nM] | AUC [2, 10] [ng·h/mL] | half-life [2, 10] [h] | AUC [2, 11] [ng·h/mL] | Cmax [2, 11] [ng/mL] | bioavailability [2, 11] [%]
CCN(c1cc(-c2ccc3c(c2)C=CC32CCN(C(C)C)CC2)cc(C(=O)NCc2c(OC)cc(C)[nH]c2=O)c1C)C1CCOCC1 [Example 37, 3-(ethyl(tetrahydro-2H-pyran-4-yl)amino)-5-(1′-isopropylspiro[indene-1,4′-piperidine]-5-yl)-N-((4-methoxy-6-methyl-2-carbonyl-1,2-dihydropyridin-3-yl)methyl)-2-methylbenzamide] | 0.87 |  |  |  |  |  | 0.95 |  | 0.54 | 0.23 | 0.6 |  | 903 | 1.25 | 1540 | 444 | 34.1
CCN(c1cc(-c2ccc3c(c2)NC(=O)C32CCOCC2)cc(C(=O)NCc2c(C)cc(C)[nH]c2=O)c1C)C1CCN(C)CC1 [Example 81, N-((4,6-dimethyl-2-oxo-1,2-dihydropyridin-3-yl)methyl)-3-(ethyl(1-methylpiperidin-4-yl)amino)-2-methyl-5-(2-oxo-2′,3′,5′,6′-tetrahydrospiro[dihydroindole-3,4′-pyran]-6-yl)benzamide] | 4.73 |  |  |  |  |  | 3.67 | 0.63 | 0.89 | 0.48 | 1.37 |  |  |  |  |  | 
CCN(c1cc(-c2ccc3c(c2)NC(=O)C32CCOCC2)cc(C(=O)NCc2c(C)cc(C)[nH]c2=O)c1C)C1CCN(C2COC2)CC1 [Example 82, N-((4,6-dimethyl-2-oxo-1,2-dihydropyridin-3-yl)methyl)-2-methyl-3-(ethyl(1-(oxetan-3-yl)piperidin-4-yl)amino)-5-(2-oxo-2′,3′,5′,6′-tetrahydrospiro[dihydroindole-3,4′-pyran]-6-yl)benzamide] | 2.85 |  |  |  |  |  | 3.62 |  | 0.52 | 0.16 | 0.83 |  |  |  |  |  | 
CCN(c1cc(-c2ccc3c(c2)NC(=O)C32CCN(C(C)=O)CC2)cc(C(=O)NCc2c(C)cc(C)[nH]c2=O)c1C)C1CCOCC1 [Example 88] | 1.56 |  |  |  |  |  | 2.76 | 0.51 | 0.61 | 0.42 |  | 0.96 |  |  |  |  | 
CCN(c1cc(-c2ccc3c(c2)NC(=O)C32CCC(=O)CC2)cc(C(=O)NCc2c(C)cc(C)[nH]c2=O)c1C)C1CCOCC1 [Example 92, N-((4,6-Dimethyl-2-oxo-1,2-dihydropyridin-3-yl)methyl)-5-(2′,4-dioxospiro[cyclohexane-1,3′-dihydroindole]-6′-yl)-3-(ethyl(tetrahydro-2H-pyran-4-yl)amino)-2-methylbenzamide] | 1.83 |  |  |  |  |  | 2.83 | 0.57 | 0.68 | 0.37 | 0.87 |  |  |  |  |  | 
CCN(c1cc(-c2ccc3c(c2)NC(=O)C32CCC(O)CC2)cc(C(=O)NCc2c(C)cc(C)[nH]c2=O)c1C)C1CCOCC1 (centres unmarked) [Example 94, N-((4,6-dimethyl-2-oxo-1,2-dihydropyridin-3-yl)methyl)-3-(ethyl(tetrahydro-2H-pyran-4-yl)amino)-5-(4-hydroxy-2′-oxospiro[cyclohexane-1,3′-dihydroindole]-6′-yl)-2-methylbenzamide] | 3.83 |  |  |  |  |  | 4.74 | 0.77 | 0.73 | 0.62 | 1.31 |  |  |  |  |  | 
CCN(c1cc(-c2ccc3c(c2)NC(=O)C32CCNCC2)cc(C(=O)NCc2c(C)cc(C)[nH]c2=O)c1C)C1CCSCC1 [Example 97, N-((4,6-Dimethyl-2-oxo-1,2-dihydropyridin-3-yl)methyl)-3-(ethyl(tetrahydro-2H-thiapyran-4-yl)amino)-2-methyl-5-(2-oxospiro[dihydroindole-3,4′-piperidine]-6-yl)benzamide] | 1.53 |  |  |  |  |  | 2.7 | 0.38 | 0.59 | 0.37 | 0.85 |  |  |  |  |  | 
CCN(c1cc(-c2ccc3c(c2)NC(=O)C32CCOCC2)cc(C(=O)NCc2c(C)cc(C)[nH]c2=O)c1C)C1CCC(N(C)C)CC1 (centres unmarked) [Example 98, N-((4,6-Dimethyl-2-oxo-1,2-dihydropyridin-3-yl)methyl)-3-((ethyl)(4-dimethylamino-cyclohexyl)amino)-2-methyl-5-(2-oxo-2′,3′,5′,6′-tetrahydrospiro[dihydroindole-3,4′-pyran]-6-yl)benzamide] | 1.06 |  |  |  |  |  | 2.23 |  | 0.36 | 0.21 | 0.67 |  |  |  |  |  | 
CCN(c1cc(-c2ccc3c(c2)NC(=O)C32CCOCC2)cc(C(=O)NCc2c(OC)cc(C)[nH]c2=O)c1C)C1CCC(N(C)C)CC1 (centres unmarked) [Example 100] | 2.73 |  |  |  |  |  | 2.85 | 0.78 | 0.79 | 0.42 |  | 1.05 |  |  |  |  | 
CCN(c1cc(-c2ccc3c(c2)NC(=O)C32CCOCC2)cc(C(=O)NCc2c(C)cc(C)[nH]c2=O)c1C)C1CCOCC1OC (centres unmarked) [Example 102, N-((4,6-Dimethyl-2-oxo-1,2-dihydropyridin-3-yl)methyl)-3-((ethyl)(3-methoxytetrahydro-2H-pyran-4-yl)amino)-2-methyl-5-(2-oxo-2′,3′,5′,6′-tetrahydrospiro[dihydroindole-3,4′-pyran]-6-yl)benzamide] | 3.45 |  |  |  |  |  | 3.87 | 0.73 | 0.89 | 0.45 | 0.96 |  |  |  |  |  | 
CCN(c1cc(-c2ccc3c(c2)NC(=O)C32CCOCC2)cc(C(=O)NCc2c(C)cc(C)[nH]c2=O)c1C)C1CC(C)OC(C)C1 (centres unmarked) [Example 104, N-((4,6-Dimethyl-2-oxo-1,2-dihydropyridin-3-yl)methyl)-3-(ethyl(2,6-dimethyltetrahydro-2H-pyran-4-yl)amino)-2-methyl-5-(2-oxo-2′,3′,5′,6′-tetrahydrospiro[dihydroindole-3,4′-pyran]-6-yl)benzamide] | 1.73 |  |  |  |  |  | 1.82 | 0.27 | 0.31 | 0.19 |  |  |  |  |  |  | 

The next lines start with results.

IC50 [1] [nM] | AUC [2, 4] [ng·h/mL] | half-life [2, 5] [h] | AUC [2, 6] [ng·h/mL] | Cmax [2, 7] [ng/mL] | bioavailability [2, 8] [%] | IC50 [3] [nM] | IC50 (Mutant type EZH2(A677G)) [nM] | IC50 (Mutant type EZH2(Y641F)) [nM] | IC50 (Mutant type EZH2(Y641N)) [nM] | IC50 (wild-type EZH2; [9]) [nM] | IC50 (wild-type EZH2) [nM] | Structure (SMILES) | AUC [2, 10] [ng·h/mL] | half-life [2, 10] [h] | AUC [2, 11] [ng·h/mL] | Cmax [2, 11] [ng/mL] | bioavailability [2, 11] [%]
1.14 | 936 | 1.26 | 1190 | 494 | 25.5 | 1.94 | 0.2 | 0.2 | 0.07 |  |  | CCN(c1cc(-c2ccc3c(c2)NCC32CCOCC2)cc(C(=O)NCc2c(C)cc(C)[nH]c2=O)c1C)C1CCNCC1 [Example 6, N-((4,6-dimethyl-2-oxo-1,2-dihydropyridin-3-yl)methyl)-3-(ethyl(piperidin-4-yl)amino)-2-methyl-5-(2′,3′,5′,6′-tetrahydrospiro[dihydroindole-3,4′-pyran]-6-yl)benzamide] |  |  |  |  | 
0.1 | 943 | 1.08 | 1350 | 479 | 28.7 | 0.41 | 0.41 | 0.56 | 0.23 |  |  | CCN(c1cc(-c2cc3c(cc2F)CCC32CCOCC2)cc(C(=O)NCc2c(C)cc(C)[nH]c2=O)c1C)C1CCOCC1 [Example 24, N-((4,6-dimethyl-2-carbonyl-1,2-dihydropyridin-3-yl)methyl)-3-(ethyl(tetrahydro-2H-pyran-4-yl)amino)-5-(5-fluoro-2,2′,3,3′,5′,6′-hexahydrospiro[indene-1,4′-pyran]-6-yl)-2-methylbenzamide] |  |  |  |  | 
1.08 |  |  |  |  |  | 1.87 | 0.71 | 0.49 | 0.24 | 0.95 |  | CCN(c1cc(-c2ccc3c(c2)NC(=O)C32CCC(F)(F)CC2)cc(C(=O)NCc2c(C)cc(C)[nH]c2=O)c1C)C1CCOCC1 [Example 91, 5-(4,4-difluoro-2′-oxospiro[cyclohexane-1,3′-dihydroindole]-6′-yl)-N-((4,6-dimethyl-2-oxo-1,2-dihydropyridin-3-yl)methyl)-3-(ethyl(tetrahydro-2H-pyran-4-yl)amino)-2-methylbenzamide] |  |  |  |  | 
2.74 |  |  |  |  |  | 3.68 | 0.82 | 0.95 | 0.57 | 1.16 |  | CCN(c1cc(-c2cnc3c(c2)NC(=O)C32CCOCC2)cc(C(=O)NCc2c(C)cc(C)[nH]c2=O)c1C)C1CCOCC1 [Example 101, N-((4,6-Dimethyl-2-oxo-1,2-dihydropyridin-3-yl)methyl)-3-(ethyl(tetrahydro-2H-pyran-4-yl)amino)-2-methyl-5-(2′-oxo-1′,2,2′,3,5,6-hexahydrospiro[pyran-4,3′-pyrrolo[3,2-b]pyridine]-6′-yl)benzamide] |  |  |  |  | 
1.67 |  |  |  |  |  | 2.5 | 0.38 | 0.54 | 0.27 |  |  | CCN(c1cc(-c2ccc3c(c2)CCC32CCOCC2)cc(C(=O)NCc2c(OC)cc(C)[nH]c2=O)c1C)C1CCOCC1 [Example 113, 3-(Ethyl(tetrahydro-2H-pyran-4-yl)amino)-5-(2,2′,3,3′,5′,6′-hexahydrospiro[indene-1,4′-pyran]-5-yl)-N-((4-methoxy-6-methyl-2-oxo-1,2-dihydropyridin-3-yl)methyl)-2-methylbenzamide] |  |  |  |  | 
